Key:
solubility in water = format: physicochemical
[1] = stability of crystal form I under lighting, heating and high humidity (purity by HPLC); format: physicochemical; settings: for stability: spread flat in the air, lighting, high temperature and high humidity
Experimental: The sample of crystal form I prepared in Example 1 was spread flat in the air to test its stability under conditions of lighting (4500 Lux), heating (40° C., 60° C.), and high humidity (RH 75%, RH 90%). Samplings were carried out on Day 5 and Day 10.

[2] = special stability study of crystal form I (grinding, heating, pressing); format: physicochemical
Description: Crystal form I of the compound of formula (I) prepared according to the method of Example 1 was ground, heated and pressed.

[3] = pharmacokinetic assay in rats; format: in vivo, Sprague-Dawley (SD) rats; settings: for AUC(0-t) / half-life / MRT inf / Cmax: single; for AUC(0-t): read-out: Area under curve AUC0-t; for half-life: read-out: Half life t1/2 (converted); for MRT inf: read-out: Resistance time MRT0-∞; for Cmax: read-out: Plasma concentration Cmax
Experimental: (§1) In the pharmacokinetic assay of the compound of Example 1 of the present invention, Sprague-Dawley (SD) rats were used as test animals. The compound of Example 1 was administrated intragastrically and intravenously to rats, then the drug concentration in the plasma at different time points was determined by a LC/MS/MS method to study the pharmacokinetic behavior and to evaluate the pharmacokinetic characteristics of the compound of the present invention in rats.

[4] = pharmacokinetic assay in dogs; format: in vivo, Beagle dogs; settings: for AUC(0-t) / half-life / MRT inf / Cmax: single; for AUC(0-t): read-out: Area under curve AUC0-t; for half-life: read-out: Half life t1/2 (converted); for MRT inf: read-out: Resistance time MRT0-∞; for Cmax: read-out: Plasma concentration Cmax
Experimental: as §1, with “Beagle dogs” for “Sprague-Dawley (SD) rats”, “dogs,” for “rats,”, “dogs.” for “rats.”

[5] = Sprague-Dawley, rat, plasma, intravenous, 3 mg/kg
[6] = Sprague-Dawley, rat, plasma, po, intragastric, 3 mg/kg
[7] = Sprague-Dawley, rat, plasma, po, intragastric, 9 mg/kg
[8] = Sprague-Dawley, rat, plasma, po, intragastric, 27 mg/kg
[9] = Beagle, dog, plasma, intravenous, 3 mg/kg
[10] = Beagle, dog, plasma, po, intragastric, 3 mg/kg
[11] = Beagle, dog, plasma, po, intragastric, 9 mg/kg
[12] = beagle, dog, plasma, po, intragastric, 27 mg/kg

With O=C(O)C1(Sc2ccnc3ccc(Br)cc23)CCC1 [1-((6-bromoquinolin-4-yl)thio)cyclobutane-1-carboxylic acid, reference compound] the “solubility in water” value (solubility in water) was “almost insoluble”.

For O=C([O-])C1(Sc2ccnc3ccc(Br)cc23)CCC1.[Na+] [Example 1, sodium 1-((6-bromoquinolin-4-yl)thio)cyclobutane-1-carboxylate], the solubility (solubility in water) was 140 µg/mL, the “purity as detected by HPLC” value ([1]; 40° C., day 0) was 99.76% and the “purity as detected by HPLC” value ([1]; 40° C., day 5) was 99.73%. The “purity as detected by HPLC” value ([1]; 40° C., day 10) was 99.73%, the “purity as detected by HPLC” value ([1]; 60° C., day 0) was 99.76% and the “purity as detected by HPLC” value ([1]; 60° C., day 5) was 99.73%. The “purity as detected by HPLC” value ([1]; 60° C., day 10) was 99.71%, the “purity as detected by HPLC” value ([1]; Lighting (4500 Lux), day 0) was 99.76% and the “purity as detected by HPLC” value ([1]; Lighting (4500 Lux), day 5) was 99.75%. For the same compound, the “purity as detected by HPLC” value ([1]; Lighting (4500 Lux), day 10) was 99.70%, the “purity as detected by HPLC” value ([1]; RH 75%, day 0) was 99.76% and the “purity as detected by HPLC” value ([1]; RH 75%, day 5) was 99.74%. The “purity as detected by HPLC” value ([1]; RH 75%, day 10) was 99.74%, the “purity as detected by HPLC” value ([1]; RH 90%, day 0) was 99.76% and the “purity as detected by HPLC” value ([1]; RH 90%, day 5) was 99.74%. The “purity as detected by HPLC” value ([1]; RH 90%, day 10) was 99.73%, the “stability” value ([1]; listed as crystal form I) was “good stability” and the “stability” value ([1]; listed as crystal form I of the compound of formula (I)) was “stable”. The “DSC peak after treatment” value ([2]; Grinding treatment for 10 minutes) was >300 °C, the “DSC peak after treatment” value ([2]; Heating treatment for 3 hours at 80° C.) was >300 °C and the “DSC peak after treatment” value ([2]; Pressing treatment) was >300 °C. The “stability of the crystal form” value ([2]; grinding, heating and pressure) was “stable”, the “oral absorption” value [3] was “well absorbed” and the AUC(0-t) [3, 5] was 56000 ± 19600 ng·h/mL. The half-life [3, 5] was 5.5 ± 1.88 h, the MRT inf [3, 5] was 6.18 ± 1.33 h and the AUC(0-t) [3, 6] was 41500 ± 27200 ng·h/mL. The half-life [3, 6] was 4.58 ± 0.85 h, the Cmax [3, 6] was 10500 ± 7900 ng/mL and the MRT inf [3, 6] was 6.15 ± 1.51 h. For the same compound, the AUC(0-t) [3, 7] was 119000 ± 65000 ng·h/mL, the half-life [3, 7] was 5.07 ± 2.08 h and the Cmax [3, 7] was 22000 ± 11000 ng/mL. It also gave an MRT inf [3, 7] of 7.11 ± 1.75 h, an AUC(0-t) [3, 8] of 336000 ± 241000 ng·h/mL and a half-life [3, 8] of 4.59 ± 0.5 h. The Cmax [3, 8] was 38800 ± 17000 ng/mL, the MRT inf [3, 8] was 7.09 ± 1.33 h and the bioavailability ([3]; Sprague-Dawley, rat, plasma, po, single intragastric 3 mg/kg, from mean AUC0-t, read-out: absolute bioavailability) was 74.1%. For the same compound, the “oral absorption” value [4] was “well absorbed”, the AUC(0-t) [4, 9] was 14500 ± 3600 ng·h/mL and the half-life [4, 9] was 4.51 ± 2.25 h. It also gave an MRT inf [4, 9] of 3.57 ± 1.89 h, an AUC(0-t) [4, 10] of 8630 ± 3440 ng·h/mL and a half-life [4, 10] of 3.49 ± 1.2 h. For the same compound, the Cmax [4, 10] was 8450 ± 2100 ng/mL, the MRT inf [4, 10] was 3.03 ± 1.03 h and the AUC(0-t) [4, 11] was 37500 ± 10800 ng·h/mL. It also gave a half-life [4, 11] of 3.83 ± 2 h, a Cmax [4, 11] of 27600 ± 4800 ng/mL and an MRT inf [4, 11] of 3.48 ± 1.36 h. It also gave an AUC(0-t) [4, 12] of 105000 ± 30900 ng·h/mL, a half-life [4, 12] of 4.31 ± 1.6 h and a Cmax [4, 12] of 78600 ± 22000 ng/mL. The MRT inf [4, 12] was 3.38 ± 0.96 h and the bioavailability ([4]; beagle, dog, plasma, po, single intragastric 3 mg/kg, from mean AUC0-t, read-out: absolute bioavailability) was 59.5%.

Reference: patent publication US10196361B2, “Sodium salt of uric acid transporter inhibitor and crystalline form thereof” (Jiangsu Hengrui Medicine Co., Ltd., priority 2015, dated 2019)
